Measured values reported in PubChem BioAssay (NCI).
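These data come from cells grown in 96-well plates and exposed to compound for 48 hours at five concentrations. At the TGI there is no net growth.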

Tests used:
Assay in all cases: DTP human tumour cell line panel, 48 h
786-0 renal = system: 786-0 renal
A549 NSCLC = system: A549 NSCLC
ACHN renal = system: ACHN renal
BT-549 breast = system: BT-549 breast
CAKI-1 renal = system: CAKI-1 renal
COLO 205 colon = system: COLO 205 colon
DU-145 prostate = system: DU-145 prostate
EKVX NSCLC = system: EKVX NSCLC
HCC-2998 colon = system: HCC-2998 colon
HCT-116 colon = system: HCT-116 colon
HCT-15 colon = system: HCT-15 colon
HOP-62 NSCLC = system: HOP-62 NSCLC
HT29 colon = system: HT29 colon
IGROV1 ovarian = system: IGROV1 ovarian
K-562 leukemia = system: K-562 leukemia
KM12 colon = system: KM12 colon
LOX IMVI melanoma = system: LOX IMVI melanoma
M14 melanoma = system: M14 melanoma
MALME-3M melanoma = system: MALME-3M melanoma
MDA-MB-231 breast = system: MDA-MB-231 breast
MDA-MB-435 = system: MDA-MB-435
MOLT-4 leukemia = system: MOLT-4 leukemia
NCI-H226 lung = system: NCI-H226 lung
NCI-H23 lung = system: NCI-H23 lung
NCI/ADR-RES ovarian = system: NCI/ADR-RES ovarian
OVCAR-3 ovarian = system: OVCAR-3 ovarian
OVCAR-4 ovarian = system: OVCAR-4 ovarian
OVCAR-5 ovarian = system: OVCAR-5 ovarian
OVCAR-8 ovarian = system: OVCAR-8 ovarian
PC-3 prostate = system: PC-3 prostate
RXF 393 renal = system: RXF 393 renal
SF-268 CNS = system: SF-268 CNS
SF-295 CNS = system: SF-295 CNS
SF-539 CNS = system: SF-539 CNS
SK-MEL-2 melanoma = system: SK-MEL-2 melanoma
SK-MEL-28 melanoma = system: SK-MEL-28 melanoma
SK-MEL-5 melanoma = system: SK-MEL-5 melanoma
SK-OV-3 ovarian = system: SK-OV-3 ovarian
SNB-19 CNS = system: SNB-19 CNS
SR leukemia = system: SR leukemia
SW-620 colon = system: SW-620 colon
T-47D breast = system: T-47D breast
TK-10 renal = system: TK-10 renal
UACC-257 melanoma = system: UACC-257 melanoma
UO-31 renal = system: UO-31 renal

Measured: TGI

CC12CCC([C@H](Nc3cc(C(F)(F)F)cc(C(F)(F)F)c3)C1=O)C2(C)C (stereo not given in full)
28 µM: RXF 393 renal
> 100 µM: all other assays above
